# Numbers after ± are expanded uncertainties.
# Conditions: 101.33 kPa, Liquid; for viscosity: Concentric cylinders viscometry; for mass density: Vibrating tube method; for electrical conductivity: syringe-type cell with a pair of platinum electrodes
Structure (SMILES),viscosity (273.15 K),mass density (273.15 K),electrical conductivity (273.15 K),viscosity (278.15 K),mass density (278.15 K),electrical conductivity (278.15 K),viscosity (283.15 K),mass density (283.15 K),electrical conductivity (283.15 K),viscosity (288.15 K),mass density (288.15 K),electrical conductivity (288.15 K),viscosity (293.15 K),mass density (293.15 K),electrical conductivity (293.15 K),viscosity (298.15 K),mass density (298.15 K),electrical conductivity (298.15 K),viscosity (303.15 K),mass density (303.15 K),further results
CC[N+](C)(C)CCOCCOC.O=S(=O)([N-]S(=O)(=O)C(F)(F)F)C(F)(F)F,243.5 ± 11 mPa·s,1414.1 ± 1.5 kg/m3,0.0681 ± 0.0027 S/m,173.6 ± 7.8 mPa·s,1409.65 ± 1.5 kg/m3,0.0936 ± 0.0037 S/m,127.5 ± 5.6 mPa·s,1404.97 ± 1.5 kg/m3,0.125 ± 0.005 S/m,96.35 ± 4.1 mPa·s,1400.31 ± 1.5 kg/m3,0.162 ± 0.0065 S/m,74.27 ± 3.1 mPa·s,1395.68 ± 1.5 kg/m3,0.206 ± 0.0082 S/m,58.57 ± 2.4 mPa·s,1391.07 ± 1.5 kg/m3,0.257 ± 0.01 S/m,47.19 ± 1.9 mPa·s,1386.49 ± 1.5 kg/m3,electrical conductivity (303.15 K): 0.315 ± 0.013 S/m; viscosity (313.15 K): 32.03 ± 1.3 mPa·s; mass density (313.15 K): 1377.4 ± 1.5 kg/m3; electrical conductivity (313.15 K): 0.451 ± 0.018 S/m; viscosity (323.15 K): 22.89 ± 0.94 mPa·s; mass density (323.15 K): 1368.39 ± 1.5 kg/m3; electrical conductivity (323.15 K): 0.616 ± 0.025 S/m; viscosity (333.15 K): 17.02 ± 0.69 mPa·s; mass density (333.15 K): 1359.45 ± 1.4 kg/m3; electrical conductivity (333.15 K): 0.81 ± 0.032 S/m; viscosity (343.15 K): 13.14 ± 0.54 mPa·s; mass density (343.15 K): 1350.57 ± 1.4 kg/m3; electrical conductivity (343.15 K): 1.02 ± 0.041 S/m; viscosity (353.15 K): 10.39 ± 0.42 mPa·s; mass density (353.15 K): 1341.75 ± 1.4 kg/m3; electrical conductivity (353.15 K): 1.27 ± 0.051 S/m; viscosity (363.15 K): 8.433 ± 0.34 mPa·s; mass density (363.15 K): 1332.98 ± 1.4 kg/m3
CCCCCCC[N+](C)(C)CC.O=S(=O)([N-]S(=O)(=O)C(F)(F)F)C(F)(F)F,944.3 ± 53 mPa·s,1311.95 ± 1.4 kg/m3,0.0157 ± 0.00063 S/m,634.1 ± 34 mPa·s,1307.78 ± 1.4 kg/m3,0.023 ± 0.00092 S/m,437.8 ± 22 mPa·s,1303.56 ± 1.4 kg/m3,0.0328 ± 0.0013 S/m,310.5 ± 15 mPa·s,1299.38 ± 1.4 kg/m3,0.0454 ± 0.0018 S/m,225.7 ± 10 mPa·s,1295.2 ± 1.4 kg/m3,0.0614 ± 0.0024 S/m,167.7 ± 7.5 mPa·s,1291 ± 1.4 kg/m3,0.081 ± 0.0032 S/m,127.6 ± 5.5 mPa·s,1286.82 ± 1.4 kg/m3,electrical conductivity (303.15 K): 0.105 ± 0.0042 S/m; viscosity (313.15 K): 77.77 ± 3.3 mPa·s; mass density (313.15 K): 1278.51 ± 1.4 kg/m3; electrical conductivity (313.15 K): 0.167 ± 0.0067 S/m; viscosity (323.15 K): 50.63 ± 2.1 mPa·s; mass density (323.15 K): 1270.28 ± 1.3 kg/m3; electrical conductivity (323.15 K): 0.249 ± 0.01 S/m; viscosity (333.15 K): 34.68 ± 1.4 mPa·s; mass density (333.15 K): 1262.09 ± 1.3 kg/m3; electrical conductivity (333.15 K): 0.353 ± 0.014 S/m; viscosity (343.15 K): 24.84 ± 1 mPa·s; mass density (343.15 K): 1253.97 ± 1.3 kg/m3; electrical conductivity (343.15 K): 0.48 ± 0.019 S/m; viscosity (353.15 K): 18.49 ± 0.76 mPa·s; mass density (353.15 K): 1245.9 ± 1.3 kg/m3; electrical conductivity (353.15 K): 0.631 ± 0.025 S/m; viscosity (363.15 K): 14.18 ± 0.58 mPa·s; mass density (363.15 K): 1237.87 ± 1.3 kg/m3
